For experiment [1], the target named is T1, rat adrenergic α1B receptor (Rattus norvegicus, UniProt P15823).
T1 construct: rat adrenergic α1B receptor obtained from Wistar Rat liver; from tissue; host or cells: Wistar rat liver
T1 sequence (P15823 1-515): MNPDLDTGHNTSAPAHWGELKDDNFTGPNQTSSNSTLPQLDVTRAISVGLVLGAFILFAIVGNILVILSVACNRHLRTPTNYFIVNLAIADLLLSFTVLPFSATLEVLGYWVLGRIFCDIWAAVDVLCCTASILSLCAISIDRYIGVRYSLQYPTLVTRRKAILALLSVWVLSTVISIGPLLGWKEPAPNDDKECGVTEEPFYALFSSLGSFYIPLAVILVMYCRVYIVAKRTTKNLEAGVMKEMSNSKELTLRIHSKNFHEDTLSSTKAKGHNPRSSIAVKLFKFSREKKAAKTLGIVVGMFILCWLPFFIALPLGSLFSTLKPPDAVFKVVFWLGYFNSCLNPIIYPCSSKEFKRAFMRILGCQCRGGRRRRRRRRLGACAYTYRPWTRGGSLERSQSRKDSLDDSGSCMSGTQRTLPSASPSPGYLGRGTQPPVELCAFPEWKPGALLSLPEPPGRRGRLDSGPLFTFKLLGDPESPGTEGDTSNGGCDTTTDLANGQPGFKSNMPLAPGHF
The experiment can be described thus: Radioligand binding, adrenergic α1B ([3H]Prazosin). The method, boiled down:
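Filter binding with Wistar rat liver α1B preparation: test compound plus 0.25 nM [3H]prazosin, 1 h at 25° C in modified Tris-HCl buffer pH 7.4.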

Experiment [2] deals with T2, human recombinant adrenergic α2A receptor (Homo sapiens, UniProt P08913).
T2 construct: expressed in transfected cells; host or cells: insect Sf9 cells
T2 sequence (P08913 1-465): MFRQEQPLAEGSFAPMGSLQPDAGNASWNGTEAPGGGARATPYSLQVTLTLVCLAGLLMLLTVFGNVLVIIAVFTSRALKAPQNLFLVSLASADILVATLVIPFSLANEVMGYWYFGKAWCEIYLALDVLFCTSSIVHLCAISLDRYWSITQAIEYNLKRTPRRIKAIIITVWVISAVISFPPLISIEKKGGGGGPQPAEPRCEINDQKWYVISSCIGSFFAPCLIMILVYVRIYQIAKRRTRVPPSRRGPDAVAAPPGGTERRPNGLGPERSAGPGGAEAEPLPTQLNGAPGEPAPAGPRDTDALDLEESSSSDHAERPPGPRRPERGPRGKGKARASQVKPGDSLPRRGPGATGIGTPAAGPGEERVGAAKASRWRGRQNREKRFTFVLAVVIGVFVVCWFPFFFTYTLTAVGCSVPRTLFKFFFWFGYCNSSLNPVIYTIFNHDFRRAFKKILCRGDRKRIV
The experiment is described as follows: Radioligand binding, adrenergic α2A ([3H]MK-912). The method, boiled down: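 Receptor expressed in insect Sf9 cells, assayed in 50 mM Tris-HCl pH 7.4 with 12.5 mM MgCl2 and 2 mM EDTA. Compounds incubated with 1 nM [3H]MK-912 for 60 min at 25 °C; nonspecific binding defined with 10 μM WB-4101. Filter-bound radioactivity counted; values are percent inhibition of specific binding.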

For experiment [3], the target named is T3, human recombinant adrenergic α1D receptor (Homo sapiens, UniProt P25100).
T3 construct: expressed in transfected cells; host or cells: HEK-293
T3 sequence (P25100 1-572): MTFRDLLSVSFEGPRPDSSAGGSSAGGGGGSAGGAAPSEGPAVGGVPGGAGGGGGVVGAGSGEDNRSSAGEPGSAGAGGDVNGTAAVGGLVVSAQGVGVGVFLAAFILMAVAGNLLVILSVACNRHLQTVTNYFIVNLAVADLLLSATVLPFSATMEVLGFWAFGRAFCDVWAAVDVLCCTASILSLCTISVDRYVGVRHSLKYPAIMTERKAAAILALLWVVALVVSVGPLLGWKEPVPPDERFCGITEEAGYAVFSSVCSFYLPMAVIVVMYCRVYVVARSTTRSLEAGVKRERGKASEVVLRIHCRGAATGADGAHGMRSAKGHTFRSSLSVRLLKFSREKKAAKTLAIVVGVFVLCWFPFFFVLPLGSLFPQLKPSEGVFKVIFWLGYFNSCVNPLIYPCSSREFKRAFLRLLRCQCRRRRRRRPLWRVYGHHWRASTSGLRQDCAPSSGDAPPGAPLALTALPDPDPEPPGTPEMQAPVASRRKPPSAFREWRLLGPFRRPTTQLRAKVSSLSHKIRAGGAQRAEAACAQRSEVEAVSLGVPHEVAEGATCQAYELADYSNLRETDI
The experiment is described as follows: Radioligand binding, adrenergic α1D ([3H]Prazosin). On the procedure: Compounds were incubated with 0.6 nM [3H]Prazosin for 60 min at 25° C. Non-specific binding was estimated in the presence of 10 μM phentolamine. Receptor proteins were filtered and washed, the filters were then counted to determine [3H]Prazosin specifically bound. […] Biochemical assay results are presented as the percent inhibition of specific binding in Table B1.

In experiment [4] the target is T4, human recombinant adrenergic α2B receptor (Homo sapiens, UniProt P18089).
T4 construct: expressed in transfected cells; host or cells: CHO-K1
T4 sequence (P18089 1-450): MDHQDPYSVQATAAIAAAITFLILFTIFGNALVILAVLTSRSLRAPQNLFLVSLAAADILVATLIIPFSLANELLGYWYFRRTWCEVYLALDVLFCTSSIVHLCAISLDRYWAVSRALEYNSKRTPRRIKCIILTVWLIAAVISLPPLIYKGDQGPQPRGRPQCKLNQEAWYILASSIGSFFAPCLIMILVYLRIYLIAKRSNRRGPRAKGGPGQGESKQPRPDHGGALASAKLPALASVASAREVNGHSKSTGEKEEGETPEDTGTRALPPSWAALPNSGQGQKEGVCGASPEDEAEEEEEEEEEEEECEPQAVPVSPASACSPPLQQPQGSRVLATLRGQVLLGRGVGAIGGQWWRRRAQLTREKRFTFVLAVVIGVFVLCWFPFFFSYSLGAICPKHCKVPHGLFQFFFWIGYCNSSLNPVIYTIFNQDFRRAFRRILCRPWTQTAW
The experiment can be described thus: Radioligand binding, adrenergic α2B ([3H]Rauwolscine). The method, boiled down: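 Readout: percent inhibition of specific [3H]Rauwolscine binding, measured by filtration and counting. Conditions: CHO-K1 cell-expressed receptor, 2.5 nM radioligand, 60 min, 25° C, Tris-HCl pH 7.4 buffer with MgCl2, EDTA, BSA. Non-specific binding: 10 μM Prazosin.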

[5] abbreviates: 0.1 μM compound, read-out: Percentage inhibition of ligand binding, Adrenergic α1B.
[6] abbreviates: 0.1 μM compound, read-out: Percentage inhibition of ligand binding, Adrenergic α2A.
[7] abbreviates: 0.1 μM compound, read-out: Percentage inhibition of ligand binding, Adrenergic α1D.
Setting [8] is: 0.1 μM compound, read-out: Percentage inhibition of ligand binding, Adrenergic α2B.
Where [9] appears, read: read-out: Percentage inhibition of ligand binding, Adrenergic α1B (0.1 μM), compound at 0.1 μM, [3H]Prazosin, repeat datapoints each shown.
[10] abbreviates: read-out: Percentage inhibition of ligand binding, Adrenergic α2A (0.1 μM), compound at 0.1 μM, [3H]MK-912, repeat datapoints each shown.
The mark [11] stands for this setting: read-out: Percentage inhibition of ligand binding, Adrenergic α1D (0.1 μM), compound at 0.1 μM, [3H]Prazosin, repeat datapoints each shown.
Setting [12] is: read-out: Percentage inhibition of ligand binding, Adrenergic α2B (0.1 μM), compound at 0.1 μM, [3H]Rauwolscine, repeat datapoints each shown.

SMILES strings stand for the structures. Like-named read-outs stand apart in the source and are kept apart here.

The inhibition is the drop in the measured response relative to a control, in per cent.

For the molecule `Cc1ccc(CCn2c3c(c4cc(Cl)c(Cl)cc42)CN(C)CC3)cn1` [compound 322], the inhibition at 0.1 µM in experiment [1] (setting [5]) worked out at 59%; in experiment [2] (setting [6]) it was 58%; in experiment [3] (setting [7]), 22%; in experiment [4] (setting [8]), 49%.

Regarding `C/C(=C\n1c2c(c3cc(C)ccc31)CCN(C)C2C)c1ccccc1F` (centres unmarked) [compound 96], the inhibition at 0.1 µM came out at 25% in experiment [1] (setting [9]), 29% in experiment [2] (setting [10]), 3% in experiment [3] (setting [11]) and 71% in experiment [4] (setting [12]).

Turning to `C/C(=C\n1c2c(c3cc(C)ccc31)CN(C)CC2)c1cccnc1` [compound 250], the inhibition at 0.1 µM in experiment [1] (setting [5]) worked out at 37%; in experiment [2] (setting [6]), 62%; in experiment [3] (setting [7]), 22%; in experiment [4] (setting [8]) it was 105%.

In the case of `Cc1ccc2c(c1)c1c(n2CCc2cscc2C)CCN(C)C1` [compound 318, 2,8-dimethyl-5-[2-(4-methyl-thiophen-3-yl)-ethyl]-2,3,4,5-tetrahydro-1H-pyrido[4,3-b]indole], the inhibition at 0.1 µM in experiment [1] (setting [5]) came out at 94%; in experiment [2] (setting [6]) it was 95%; in experiment [3] (setting [7]) it was 60%; in experiment [4] (setting [8]) it was 103%.

Regarding `CSc1ccc(/C(C)=C/n2c3c(c4cc(Cl)ccc42)CN(C)CC3)cc1` [compound 280], the inhibition at 0.1 µM in experiment [1] (setting [5]) worked out at 76%; in experiment [2] (setting [6]), 97%; in experiment [3] (setting [7]), 65%; in experiment [4] (setting [8]) it was 98%.

With `C/C(=C\n1c2c(c3cc(C)ccc31)CN(C)CC2)c1ccc(C(F)(F)F)nc1` [compound 331], the inhibition at 0.1 µM in experiment [1] (setting [5]) came out at 53%; in experiment [2] (setting [6]), 53%; in experiment [3] (setting [7]), 70%; in experiment [4] (setting [8]) it was 99%.

Take `Cc1ccc2c(c1)c1c(n2CC(C)c2ccncc2)CCN(C)C1` (centres unmarked) [compound 255]: the inhibition at 0.1 µM amounted to 55% in experiment [1] (setting [5]), 63% in experiment [2] (setting [6]), 43% in experiment [3] (setting [7]) and 96% in experiment [4] (setting [8]).

With `CN1CCc2c(c3cc(Cl)ccc3n2CC(C)(O)c2ccncc2)C1` (centres unmarked) [compound 1], the inhibition at 0.1 µM in experiment [1] (compound at 0.1 μM, [3H]Prazosin, repeat assays, each datapoint shown, read-out: Percentage inhibition of ligand binding, Adrenergic α1B) is 32%; in experiment [2] (compound at 0.1 μM, [3H]MK-912, repeat assays, each datapoint shown, read-out: Percentage inhibition of ligand binding, Adrenergic α2A), 6%; in experiment [3] (compound at 0.1 μM, [3H]Prazosin, repeat assays, each datapoint shown, read-out: Percentage inhibition of ligand binding, Adrenergic α1D), 16%; in experiment [4] (compound at 0.1 μM, [3H]Rauwolscine, repeat assays, each datapoint shown, read-out: Percentage inhibition of ligand binding, Adrenergic α2B), 74%.

`COCc1ccc(/C(C)=C/n2c3c(c4cc(C)ccc42)CN(C)CC3)cn1` [compound 126]: the inhibition at 0.1 µM in experiment [1] (setting [9]) is 30%; in experiment [2] (setting [10]), 12%; in experiment [3] (setting [11]) it was 46%; in experiment [4] (setting [12]), 82%.

`Cc1ccc2c(c1)c1c(n2CCc2nc(-c3ccc(Cl)cc3)cs2)CCN(C)C1` [compound 326]: the inhibition at 0.1 µM in experiment [1] (setting [5]) stood at 33%; in experiment [2] (setting [6]), 51%; in experiment [3] (setting [7]), 35%; in experiment [4] (setting [8]) it was 93%.

For `C/C(=C\n1c2c(c3cc(C)ccc31)CN(C)CC2)c1cn[nH]c1` [compound 115], the inhibition at 0.1 µM in experiment [1] (setting [9]) is 19%; in experiment [2] (setting [10]) it was 21%; in experiment [3] (setting [11]) it was 24%; in experiment [4] (setting [12]), 94%.

With `COc1ccc(/C(C)=C/n2c3c(c4cc(C)ccc42)CN(C)CC3)cn1` [compound 266], the inhibition at 0.1 µM in experiment [1] (setting [5]) stood at 63%; in experiment [2] (setting [6]), 62%; in experiment [3] (setting [7]), 72%; in experiment [4] (setting [8]), 92%.

`C/C(=C/n1c2c(c3cc(C)ccc31)CN(C)CC2)c1ccnn1C` [compound 273]: the inhibition at 0.1 µM in experiment [1] (setting [5]) turned out to be 88%; in experiment [2] (setting [6]), 67%; in experiment [3] (setting [7]), 71%; in experiment [4] (setting [8]) it was 89%.

For `C/C=C(/c1ccccc1)n1c2c(c3cc(C)ccc31)CN(C)CC2` [compound 262], the inhibition at 0.1 µM in experiment [1] (setting [5]) amounted to 52%; in experiment [2] (setting [6]), 87%; in experiment [3] (setting [7]), 35%; in experiment [4] (setting [8]), 74%.

The values are drawn from patent publication US8791132B2, “Compounds and methods for treatment of hypertension” (Medivation Technologies, Inc., priority 2011, dated 2014).
